Format in all cases: functional, cell-based
One experiment deals with HL-60. Put plainly: Cytotoxicity against human HL60 cells after 48 hrs by SRB assay. A general note: The SRB assay estimates cell density from bound dye.
Another experiment has as its system SMMC-7721. Put plainly: Cytotoxicity against human SMMC7721 cells after 48 hrs by SRB assay.
A further experiment concerns HeLa. Put plainly: Cytotoxicity against human HeLa cells after 48 hrs by SRB assay.

One may read the IC50 as the concentration that gives 50% inhibition.

With `COC(=O)[C@]1([C@H](C)Cl)C[C@@H](C)[C@@](C)(OC(C)=O)C(=O)O1` [LIGUHODGCINS A], the IC50 is 141 µM in the experiment with HL-60 (hl-60), 156 µM in the experiment on SMMC-7721 (smmc-7721) and 171 µM in the experiment on HeLa (hela).
Take `CO[C@@]12[C@H](COC(N)=O)C3=C(C(=O)C(C)=C(N)C3=O)N1C[C@@H]1N[C@@H]12` [MITOMYCIN]: the IC50 in the experiment with HL-60 (Homo sapiens, HL-60, 48 h, read-out: IC50) was 1.8 µM; in the experiment with SMMC-7721 (Homo sapiens, SMMC-7721, 48 h, read-out: IC50) it was 5.6 µM; with HeLa (Homo sapiens, HeLa, 48 h, read-out: IC50) it was 3.4 µM.
Regarding `COC(=O)[C@]1(C)OC(=O)[C@]2(C[C@H]1C)O[C@@H]2C` [LIGUHODGCINS B], the IC50 was determined as 151 µM with HL-60 (hl-60), 162 µM in the experiment with SMMC-7721 (smmc-7721) and 168 µM in the experiment with HeLa (hela).

Values taken from ChEMBL document CHEMBL2062491, “Absolute structures of monoterpenoids with a δ-lactone-containing skeleton from Ligularia hodgsonii” (J Nat Prod, 2012).
